Source: patent US20260284209A1, “POLYPEPTIDE ADJUVANTS AND USES THEREOF” (BOARD OF REGENTS, THE UNIVERSITY OF TEXAS SYSTEM, priority 2023, published 2026)

Key:
[1] = test system: ER stress markers BiP, EIF2α, CHOP, XBP1 in bone marrow-derived macrophages; test: ER stress markers (western blotting, XBP1 RT-qPCR); format: cell-based, mouse
Experimental: M2 BMDMs (1.5×10^7 cells/100 mm^2 petri dish) or cancer cells (2×10^6 cells per 6-well plates) were treated with the experimental solutions. To evaluate inhibitory conditions, cells were pre-treated with CsA (10 μM, TCI America) for 3 h, or co-treated with 4-PBA (5 mM in phosphate-buffered saline [PBS], Tocris Bioscience, USA) and chloroquine (10 μg/mL, Alfa Aesar, USA). Each protein was extracted by using RIPA buffer containing 1% protease inhibitor and 1% phosphatase inhibitor cocktail. Protein concentrations were adjusted to 3 mg/mL by using a BCA kit, with FBS used as a standard. Electrophoresis was carried out by loading proteins (40 μg) into each lane of a sodium dodecyl sulfate-polyacrylamide gel (SDS-PAGE) gel, after which the proteins were transferred to a polyvinylidene fluoride membrane. After blocking, the PVDF membrane was treated with the corresponding primary antibody, and then washed with TBS-T three times before the treatment with the secondary antibody. The blot signals were visualized with a Chemidoc system (ChemiDoc MP imaging system, BioRad, USA).

[2] = test system: cGAS-STING, MyD88 and canonical NF-κB pathways in M2 BMDMs; test: Western blotting of cGAS-STING, MyD88 and canonical NF-κB pathways; format: cell-based, mouse; conditions: excessive ER stress induction
Experimental: A western blot was performed as described in Example 1, to assess whether the cationic polypeptides activate innate immune sensors in APCs.

tunicamycin
ER stress / ER stress markers [1]: detrimental levels
activation of MyD88 and STING in macrophages [2]: inhibited activation of MyD88 and STING in macrophages
